From patent publication US12486254B2, “Uracil derivatives for stimulating read-through of premature termination codons” (Southern Research Institute, priority 2022, dated 2025)

Tests used:
G542X#10-HBE5x5 = assay: Read-through of a premature termination codon, G542X#10-HBE5x5 (Table 3); format: cell-based; settings: with G418
Procedure: (§1) The compounds shown in Table 1 were evaluated for their ability to stimulate read-through of a premature termination codon, and their respective activities are shown in Tables 2 and 3 below.

W134X-CF#14 FRT = assay: Read-through of a premature termination codon, W134X-CF#14 FRT data, with G418; format: cell-based; settings: in presence of G418
Procedure: as §1

Nc1c(C(=O)CN2CCCC[C@@H]2C(=O)N2CCCCC2)c(=O)n(Cc2ccc(F)cc2)c(=O)n1Cc1ccc(F)cc1 [1.152]
EC50 (G542X#10-HBE5x5): 25 µM
EC50 (W134X-CF#14 FRT): 3.13 µM

CCn1c(=O)c(C(=O)CN2CCCCC2C(N)=O)c(N)n(Cc2cccs2)c1=O (stereo not shown) [1.112]
EC50 (G542X#10-HBE5x5): ≥ 100 µM
EC50 (W134X-CF#14 FRT): 3.46 µM

CCn1c(=O)c(C(=O)CN2CCC(C)CC2C(N)=O)c(N)n(Cc2ccc(F)cc2)c1=O (stereo not shown) [1.131]
EC50 (G542X#10-HBE5x5): ≥ 100 µM
EC50 (W134X-CF#14 FRT): 4.7 µM

NC(=O)C1CCCCN1CC(=O)c1c(N)n(Cc2ccc(F)cc2)c(=O)n(CC2CCC2)c1=O (stereo not shown) [1.140]
EC50 (G542X#10-HBE5x5): ≥ 100 µM
EC50 (W134X-CF#14 FRT): 6.34 µM

CCn1c(=O)c(C(=O)CN(Cc2ncco2)C(C)C)c(N)n(Cc2ccccc2)c1=O [1.56]
EC50 (G542X#10-HBE5x5): ≥ 100 µM
EC50 (W134X-CF#14 FRT): ≥ 100 µM

CCn1c(=O)c(C(=O)CN2CCCCC2C(C)C)c(N)n(Cc2ccc(F)cc2)c1=O (stereo not shown) [1.175]
EC50 (G542X#10-HBE5x5): ≥ 100 µM
EC50 (W134X-CF#14 FRT): 8.49 µM

CCn1c(=O)c(C(=O)CN2CCc3cc(F)ccc3C2)c(N)n(Cc2ccccc2)c1=O [1.7]
EC50 (G542X#10-HBE5x5): ≥ 100 µM
EC50 (W134X-CF#14 FRT): 32.1 µM

CCn1c(=O)c(C(=O)CN(CC(=O)N2CCC(F)(F)CC2)C(C)C)c(N)n(Cc2ccc(F)cc2)c1=O [1.203]
EC50 (G542X#10-HBE5x5): ≥ 100 µM
EC50 (W134X-CF#14 FRT): 4.1 µM

CCn1c(=O)c(C(=O)CN(C)Cc2ccc(C(=O)NC)cc2)c(N)n(Cc2ccccc2)c1=O [1.2]
EC50 (G542X#10-HBE5x5): ≥ 100 µM
EC50 (W134X-CF#14 FRT): 109 µM

CCn1c(=O)c(C(=O)CNc2cc(OC)c(OC)c(OC)c2)c(N)n(Cc2ccc(F)cc2)c1=O [1.183]
EC50 (G542X#10-HBE5x5): ≥ 100 µM
EC50 (W134X-CF#14 FRT): 25.7 µM

CCn1c(=O)c(C(=O)CN2CCCCC2CN(C)C)c(N)n(Cc2ccc(F)cc2)c1=O (stereo not shown) [1.177]
EC50 (G542X#10-HBE5x5): ≥ 100 µM
EC50 (W134X-CF#14 FRT): 65.1 µM
